# Results taken from patent US9382254B2, “Compounds and pharmaceutical compositions thereof for the treatment of cystic fibrosis” (Galapagos NV, priority 2013, dated 2016).
# Target: T1, CFTR ΔF508 mutant (Homo sapiens, UniProt P13569, DEL508-508)
# T1 construct: expressed in transfected cells; host or cells: CFBE41o- (adenoviral transduction)
# Experiment: YFP-halide influx assay for the CFTR-ΔF508 mutation, gluconate buffer
# Assay type: cell-based
# Settings: CFBE41o- cells, forskolin 10.67 μM
# From the text: The YFP halide influx assay measures the functionality of the cystic fibrosis Transmembrane Conductance regulator (CFTR) channels in the cystic fibrosis bronchial epithelium cell line CFBE41o-. The assay is used to evaluate the capacity of compounds to increase the open probability of existing CFTR channels in the membrane. It makes use of the observation that the yellow fluorescent protein (YFP) variant YFP H148Q, I152L has its fluorescence substantially quenched by halide ions like Cl^− and I^−. (Galietta, Haggie, & Verkman, 2001) (Nagai, et al., 2002)
# For this purpose, CFBE41o-cells are seeded in 96 well plates (6000 CFBE cells/well). One day after seeding, the CFBE cells are transduced with adenoviral vectors that direct the expression of the CFTR ΔF508 mutant and of the YFP reporter. Cells are incubated at 27° C., 5% CO2 for 24 hours so as to allow for the proper folding and migration to the membrane of the CFTR channel or treated with a CFTR modulator during 24 hours at 37° C.
# The I^−-induced quenching of fluorescence is recorded immediately after injection of I^− for 7 seconds. The capacity of a compound to increase the channel opening is directly correlated with the decrease in fluorescence, and is expressed as (1-(fluorescence after 7 seconds (F)/fluorescence before injection (F0))) and an EC50 can be derived from a (1-F/F0) vs compound concentration plot.
# T1 sequence (P13569 with tags, fused parts or gaps DEL508-508): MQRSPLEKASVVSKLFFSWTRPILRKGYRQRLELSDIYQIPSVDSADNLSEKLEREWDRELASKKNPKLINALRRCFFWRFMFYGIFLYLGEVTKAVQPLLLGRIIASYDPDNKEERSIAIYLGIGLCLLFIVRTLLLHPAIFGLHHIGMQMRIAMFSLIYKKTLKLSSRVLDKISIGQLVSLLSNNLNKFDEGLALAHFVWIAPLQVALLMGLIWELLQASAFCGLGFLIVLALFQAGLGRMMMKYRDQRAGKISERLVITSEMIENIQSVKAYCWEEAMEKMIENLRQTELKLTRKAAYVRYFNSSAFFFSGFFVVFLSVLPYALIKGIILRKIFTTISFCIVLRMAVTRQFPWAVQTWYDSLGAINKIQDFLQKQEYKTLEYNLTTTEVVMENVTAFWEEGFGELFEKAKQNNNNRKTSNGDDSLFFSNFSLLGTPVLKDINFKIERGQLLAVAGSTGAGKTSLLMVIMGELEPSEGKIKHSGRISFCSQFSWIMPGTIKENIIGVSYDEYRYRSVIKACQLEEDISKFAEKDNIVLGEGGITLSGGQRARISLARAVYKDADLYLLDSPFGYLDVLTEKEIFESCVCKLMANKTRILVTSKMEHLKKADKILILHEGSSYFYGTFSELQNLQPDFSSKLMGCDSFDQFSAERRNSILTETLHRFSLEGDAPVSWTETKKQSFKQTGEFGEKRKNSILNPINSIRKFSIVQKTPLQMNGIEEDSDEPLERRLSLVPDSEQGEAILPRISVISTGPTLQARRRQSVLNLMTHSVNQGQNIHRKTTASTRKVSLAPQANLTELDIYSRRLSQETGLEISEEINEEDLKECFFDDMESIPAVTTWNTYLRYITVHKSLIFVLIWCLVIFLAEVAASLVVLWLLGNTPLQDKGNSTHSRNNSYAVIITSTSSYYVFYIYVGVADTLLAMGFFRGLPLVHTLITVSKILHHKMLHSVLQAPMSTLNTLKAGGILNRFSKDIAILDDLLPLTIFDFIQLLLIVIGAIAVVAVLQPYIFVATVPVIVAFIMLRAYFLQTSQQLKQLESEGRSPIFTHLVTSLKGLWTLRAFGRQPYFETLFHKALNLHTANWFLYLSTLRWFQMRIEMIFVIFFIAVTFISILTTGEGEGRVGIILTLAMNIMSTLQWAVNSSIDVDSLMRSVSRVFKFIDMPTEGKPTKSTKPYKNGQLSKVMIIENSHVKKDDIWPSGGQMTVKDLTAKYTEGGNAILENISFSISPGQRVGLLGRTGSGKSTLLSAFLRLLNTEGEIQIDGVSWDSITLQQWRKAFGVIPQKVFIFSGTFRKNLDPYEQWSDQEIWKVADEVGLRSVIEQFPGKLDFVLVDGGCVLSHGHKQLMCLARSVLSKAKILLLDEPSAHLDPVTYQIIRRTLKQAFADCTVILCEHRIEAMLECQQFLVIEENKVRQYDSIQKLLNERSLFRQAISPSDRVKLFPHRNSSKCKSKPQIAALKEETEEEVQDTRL
row,EC50 [nM],SMILES
1,418,"CN(C)S(=O)(=O)c1cc(C(N)=O)c(NC(=O)c2cc[nH]n2)s1 [Compound 75, N-(3-carbamoyl-5-(N,N-dimethylsulfamoyl)thiophen-2-yl)-1H-pyrazole-3-carboxamide]"
2,3330,"NC(=O)c1cc(S(=O)(=O)N2CCOCC2)sc1NC(=O)c1ncccc1F [Compound 77, N-(3-carbamoyl-5-(morpholinosulfonyl)thiophen-2-yl)-3-fluoropicolinamide]"
3,> 1000,"NC(=O)c1cc(S(=O)(=O)N2CCOCC2)sc1NC(=O)c1cccnn1 [Compound 79, N-(3-carbamoyl-5-(morpholinosulfonyl)thiophen-2-yl) pyridazine-3-carboxamide]"
4,> 1000,"NC(=O)c1cc(S(=O)(=O)N2CCOCC2)sc1NC(=O)c1ccnnc1 [Compound 80, N-(3-carbamoyl-5-(morpholinosulfonyl)thiophen-2-yl)pyridazine-4-carboxamide]"
5,> 1000,"NC(=O)c1cc(S(=O)(=O)N2CCOCC2)sc1NC(=O)c1ncccn1 [Compound 81, N-(3-carbamoyl-5-(morpholinosulfonyl)thiophen-2-yl) pyrimidine-2-carboxamide]"
6,138,"Cc1ccc(C(=O)Nc2sc(S(=O)(=O)c3ccccc3)c(C)c2C(N)=O)s1 [Compound 86, N-(3-carbamoyl-4-methyl-5-(phenylsulfonyl)thiophen-2-yl)-5-methylthiophene-2-carboxamide]"
7,1520,"NC(=O)c1cc(S(=O)(=O)N2CCOCC2)sc1NC(=O)c1ccccn1 [Compound 91, N-(3-carbamoyl-5-(morpholinosulfonyl)thiophen-2-yl) picolinamide]"
8,953,"Cc1c(S(=O)(=O)N2CCOCC2)sc(NC(=O)C(C)(C)C)c1C(N)=O [Compound 92, 4-methyl-5-(morpholinosulfonyl)-2-pivalamidothiophene-3-carboxamide]"
9,3330,"NC(=O)c1cc(S(=O)(=O)N2CCOCC2)sc1NC(=O)c1cocn1 [Compound 94, N-(3-carbamoyl-5-(morpholinosulfonyl)thiophen-2-yl) oxazole-4-carboxamide]"
10,> 1000,"NC(=O)c1cc(S(=O)(=O)N2CCOCC2)sc1NC(=O)c1ccc[nH]1 [Compound 97, N-(3-carbamoyl-5-(morpholinosulfonyl)thiophen-2-yl)-1H-pyrrole-2-carboxamide]"
11,198,"CN(CC(F)F)S(=O)(=O)c1cc(C(N)=O)c(NC(=O)c2ccccc2F)s1 [Compound 108, 5-(N-(2,2-difluoroethyl)-N-methylsulfamoyl)-2-(2-fluorobenzamido) thiophene-3-carboxamide]"
12,144,"CCc1cc(C(=O)Nc2sc(S(=O)(=O)c3ccc(F)cc3)cc2C(N)=O)n[nH]1 [Compound 110, N-(3-carbamoyl-5-(4-fluorophenylsulfonyl)thiophen-2-yl)-5-ethyl-1H-pyrazole-3-carboxamide]"
13,138,"NC(=O)c1cc(S(=O)(=O)c2ccccc2F)sc1NC(=O)c1ccccc1F [Compound 117, 2-(2-fluorobenzamido)-5-(2-fluorophenylsulfonyl) thiophene-3-carboxamide]"
14,488,"CC(C)(C)C(=O)Nc1sc(S(=O)(=O)c2ccc(F)c(F)c2)cc1C(N)=O [Compound 120, 5-(3,4-difluorophenylsulfonyl)-2-pivalamidothiophene-3-carboxamide]"
15,503,"Cc1ccc(CN(C)S(=O)(=O)c2cc(C(N)=O)c(NC(=O)c3ccccc3F)s2)cc1 [Compound 124, 2-(2-fluorobenzamido)-5-(N-methyl-N-(4-methylbenzyl)sulfamoyl) thiophene-3-carboxamide]"
16,659,"CS(=O)(=O)c1cc(C(N)=O)c(NC(=O)c2ccccc2F)s1 [Compound 127, 2-(2-fluorobenzamido)-5-(methylsulfonyl) thiophene-3-carboxamide]"

# Continued, molecule first:
row,SMILES,EC50 [nM]
1,"CN(C)S(=O)(=O)c1cc(C(N)=O)c(NC(=O)c2ccccc2F)s1 [Compound 74, 5-(N,N-dimethylsulfamoyl)-2-(2-fluorobenzamido) thiophene-3-carboxamide]",135
2,"NC(=O)c1cc(S(=O)(=O)N2CCOCC2)sc1NC(=O)c1cscn1 [Compound 76, N-(3-carbamoyl-5-(morpholinosulfonyl)thiophen-2-yl)thiazole-4-carboxamide]",621
3,"Cc1ccc(C(=O)Nc2sc(S(=O)(=O)Cc3ccccc3)cc2C(N)=O)s1 [Compound 82, N-(5-(benzylsulfonyl)-3-carbamoylthiophen-2-yl)-5-methylthiophene-2-carboxamide]",468
4,"Cc1ccc(C(=O)Nc2sc(S(=O)(=O)C3CCOCC3)cc2C(N)=O)s1 [Compound 84, N-(3-carbamoyl-5-(tetrahydro-2H-pyran-4-ylsulfonyl)thiophen-2-yl)-5-methylthiophene-2-carboxamide]",3190
5,"Cc1c(S(=O)(=O)N2CCOCC2)sc(NC(=O)c2ccccc2F)c1C(N)=O [Compound 85, 2-(2-fluorobenzamido)-4-methyl-5-(morpholinosulfonyl) thiophene-3-carboxamide]",114
6,"CN(Cc1ccccc1)S(=O)(=O)c1cc(C(N)=O)c(NC(=O)C(C)(C)C)s1 [Compound 88, 5-(N-benzyl-N-methylsulfamoyl)-2-pivalamidothiophene-3-carboxamide]",162
7,"Cc1ccc(C(=O)Nc2sc(S(=O)(=O)c3ccccn3)cc2C(N)=O)s1 [Compound 89, N-(3-carbamoyl-5-(pyridin-2-ylsulfonyl)thiophen-2-yl)-5-methylthiophene-2-carboxamide]",378
8,"Cc1c(S(=O)(=O)N2CCOCC2)sc(NC(=O)c2cc[nH]n2)c1C(N)=O [Compound 90, N-(3-carbamoyl-4-methyl-5-(morpholinosulfonyl)thiophen-2-yl)-1H-pyrazole-3-carboxamide]",261
9,"NC(=O)c1cc(S(=O)(=O)N2CCOCC2)sc1NC(=O)c1nccs1 [Compound 93, N-(3-carbamoyl-5-(morpholinosulfonyl)thiophen-2-yl)thiazole-2-carboxamide]",3330
10,"CC(C)(C)c1cc(C(=O)Nc2sc(S(=O)(=O)c3ccccc3)cc2C(N)=O)n[nH]1 [Compound 96, 5-tert-butyl-N-(3-carbamoyl-5-(phenylsulfonyl)thiophen-2-yl)-1H-pyrazole-3-carboxamide]",253
11,"NC(=O)c1cc(S(=O)(=O)N2CCOCC2)sc1NC(=O)c1ncco1 [Compound 98, N-(3-carbamoyl-5-(morpholinosulfonyl)thiophen-2-yl)oxazole-2-carboxamide]",> 1000
12,"NC(=O)c1cc(S(=O)(=O)N2CCOCC2)sc1NC(=O)c1ccco1 [Compound 99, N-(3-carbamoyl-5-(morpholinosulfonyl)thiophen-2-yl)furan-2-carboxamide]",1940
13,"NC(=O)c1cc(S(=O)(=O)c2ccccc2)sc1NC(=O)c1ccccc1F [Compound 100, 2-(2-fluorobenzamido)-5-(phenylsulfonyl) thiophene-3-carboxamide]",121
14,"NC(=O)c1cc(S(=O)(=O)N2CCOCC2)sc1NC(=O)c1cc(C(F)(F)F)[nH]n1 [Compound 102, N-(3-carbamoyl-5-(morpholinosulfonyl)thiophen-2-yl)-5-(trifluoromethyl)-1H-pyrazole-3-carboxamide]",215
15,"Cc1c(S(=O)(=O)c2ccccc2)sc(NC(=O)c2ccccc2C(F)(F)F)c1C(N)=O [Compound 104, 4-methyl-5-(phenylsulfonyl)-2-(2-(trifluoromethyl)benzamido)thiophene-3-carboxamide]",370
16,"Cc1c(S(=O)(=O)N2CCOCC2)sc(NC(=O)c2ccccc2C(F)(F)F)c1C(N)=O [Compound 105, 4-methyl-5-(morpholinosulfonyl)-2-(2-(trifluoromethyl)benzamido) thiophene-3-carboxamide]",396
17,"CN(Cc1ccc(F)cc1)S(=O)(=O)c1cc(C(N)=O)c(NC(=O)c2ccccc2F)s1 [Compound 106, 2-(2-fluorobenzamido)-5-(N-(4-fluorobenzyl)-N-methylsulfamoyl) thiophene-3-carboxamide]",213
18,"CN(C(C)(C)C)S(=O)(=O)c1cc(C(N)=O)c(NC(=O)c2ccccc2F)s1 [Compound 107, 5-(N-tert-butyl-N-methylsulfamoyl)-2-(2-fluorobenzamido) thiophene-3-carboxamide]",130
19,"CC(C)(C)C(=O)Nc1sc(S(=O)(=O)c2ccc(F)cc2)cc1C(N)=O [Compound 112, 5-(4-fluorophenylsulfonyl)-2-pivalamidothiophene-3-carboxamide]",352
20,"NC(=O)c1cc(S(=O)(=O)c2cccc(F)c2)sc1NC(=O)c1ccccc1F [Compound 115, 2-(2-fluorobenzamido)-5-(3-fluorophenylsulfonyl) thiophene-3-carboxamide]",235
21,"CN(CC#N)S(=O)(=O)c1cc(C(N)=O)c(NC(=O)c2ccccc2F)s1 [Compound 125, 5-(N-(cyanomethyl)-N-methylsulfamoyl)-2-(2-fluorobenzamido) thiophene-3-carboxamide]",580
22,"NC(=O)c1cc(S(=O)(=O)N2CC(F)(F)C2)sc1NC(=O)c1ccccc1F [Compound 126, 5-(3,3-diflluoroazetidin-1-ylsulfonyl)-2-(2-fluorobenzamido) thiophene-3-carboxamide]",191
